The conditions of series [1]: amide bond.
In series [2] the target is T1, endothelin receptor A (ETA) (Sus scrofa, UniProt Q29010).
T1 construct: A membrane fraction prepared from the porcine heart; from tissue; host or cells: porcine heart membrane fraction
T1 sequence (Q29010 21-427): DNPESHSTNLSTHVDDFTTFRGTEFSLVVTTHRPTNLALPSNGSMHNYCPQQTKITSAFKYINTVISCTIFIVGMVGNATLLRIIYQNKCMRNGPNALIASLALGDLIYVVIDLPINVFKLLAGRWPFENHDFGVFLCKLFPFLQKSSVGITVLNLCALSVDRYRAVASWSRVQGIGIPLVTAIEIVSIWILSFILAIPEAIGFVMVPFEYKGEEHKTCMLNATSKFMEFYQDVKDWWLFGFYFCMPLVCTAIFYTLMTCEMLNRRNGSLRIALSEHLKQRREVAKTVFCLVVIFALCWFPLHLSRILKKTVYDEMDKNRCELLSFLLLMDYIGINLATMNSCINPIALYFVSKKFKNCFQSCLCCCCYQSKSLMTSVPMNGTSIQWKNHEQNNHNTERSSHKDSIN
Nature of the series: Assay of Affinity for Receptor (1): Binding Activity on ETA Receptor. Also on record: key to Binding Activity on ET Receptor (R. act.) ETA: relative binding activity; reference cyclic pentapeptide = 1.0. As to conditions: specific activity, binding activity of cyclo[-D-Glu-Ala-D-aIle-Leu-D-Trp-] taken as 1.0; porcine heart membrane fraction, 125I-labeled endothelin-1, 25° C., 1 hour. Here is the method: Assay of Affinity for Receptor (1) . . . Binding Activity on ETA Receptor
A membrane fraction prepared from the porcine heart was diluted to 0.15 mg/ml by using a buffer solution for assay, and 100 μl of the resulting suspension of the membrane fraction was poured into each assay tube to use for assay. To this suspension of the membrane fraction was added 2 μl of 5 nM ^125 I-labeled endothelin-1 solution. Further, 3 μl of a test peptide solution was added thereto, followed by incubation at a temperature of 25° C. for 1 hour. Then, the resulting suspension was diluted with 900 μl of the buffer solution for assay cooled with ice, and thereafter separated into a supernatant and a precipitate by centrifugation at 12,000×g for 10 minutes. Cell membranes and an endothelin receptor A (ETA) embedded therein were contained in the precipitate, and radioactive iodine-labeled endothelin combined with the receptor was also recovered in the precipitate. Accordingly, the amount of radioactive iodine-labeled endothelin combined with the endothelin receptor A (ETA) was determined by measuring the amount of radioactive iodine contained in the precipitate with a gamma-ray counter. The cyclic pentapeptide described in Japanese Patent Application No. 2-413828/1990, cyclo[-D-Glu-Ala-D-aIle-Leu-D-Trp-], was used as a control compound. The numerical value of ETA shown in Table 1 is the value of specific activity, taking the binding activity of this cyclic pentapeptide on the receptor A as 1.0. The binding activity (IC50) of this cyclic pentapeptide on the ETA receptor is 2×10^-6 M.

The test system of series [3] is ETB receptor (guinea pig kidney crude receptor membrane fraction). Nature of the series: ETB Radio Receptor Assay *2. As to conditions: relative activity (Example 8 given as 100), 125I-endothelin-1, 37° C., 90 minutes. In kind it is binding. As to the method:
ETB Radio Receptor Assay *2
In the endothelin radio receptor assay, guinea pigs' kidneys were used. Guinea pigs (Std Hartrey, male 250 g, Japan SLC Ltd.) were made to have a cerebral concussion and sacrificed by bleeding from carotid arteries to pick up the kidneys and removed fat therefrom to prepare the kidneys. The obtained kidneys were sliced and homogenized by politron homogenizer in 20 ml of 50 mM Tris-HCl buffer [pH 7.4; 20 mM NaHCO3, 0.1 mM PMSF (Phenylmethylsulfonyl Fluoride), 1 mM EDTA (Ethylenediaminetetraacetic acid)] per one kidney. The homogenized kidney was applied to a centrifugation at 1,000×g for 15 minutes and the supernatant was further applied to a centrifugation for 20 minutes at 30,000×g. The resulting precipitate was twice washed with 50 mM Tris-HCl buffer (pH 7.4) containing 0.1 mM PMSF, 1 mM EDTA. The resultant was stored at -80 ° C. as a crude receptor membrane fraction and was used as the suspension in the following buffer when necessary.
740 Bq of ^125 I-endothelin-1 (81.4 TBq/mmol, Du Pont, USA) as a radio ligand, the crude membrane fraction (2.1 μg protein) and samples were added to the following buffer. The reaction was performed at 37° C., for 90 minutes in 0.2 ml of the buffer [50 mM Tris-HCl buffer (pH 7.4) containing 0.1 mM PMSF, 1 mM EDTA, 0.2% bovine serum albumin].
The reaction was stopped by fast filtration on a glass filter (GF/B, Wattman, USA) by Cell Harvestor (290 PHD, Cambridge-Technology, Great Britain), and the filter was three times washed with 50 mM Tris-HCl buffer (pH 7.4). Radio activity remained on the filter was assayed by a gamma counter.

Molecules are shown by their SMILES. Like-named read-outs stand apart in the source and are kept apart here. Non-standard residues stand in square brackets, D forms with d. Residues, ends and D or L forms follow the SMILES beside them.

For `CC(C)C[C@@H]1NC(=O)[C@@H](CC(C)C)NC(=O)[C@@H](CC(=O)O)NC(=O)[C@H](C)NC(=O)[C@@H](CC(=O)O)NC(=O)[C@@H](Cc2c[nH]c3ccccc23)NC1=O` [cyclo[-D-Asp-Ala-D-Asp-D-Leu-Leu-D-Trp-]], the ring closure, yield of all isomers in series [1] (from CC(C)C[C@H](NC(=O)[C@@H](CC(C)C)NC(=O)[C@@H](CC(=O)OCc1ccccc1)NC(=O)[C@H](C)NC(=O)[C@@H](CC(=O)OCc1ccccc1)NC(=O)[C@@H](Cc1c[nH]c2ccccc12)NC(=O)OC(C)(C)C)C(=O)O, HONB/DCC (active ester), TEA, DMF, 5.0 mM, 4 steps) was 15.3%.
The compound `CC(C)C[C@@H]1NC(=O)[C@@H](CC(C)C)NC(=O)[C@H](CC(=O)OCc2ccccc2)NC(=O)[C@@H]2C[C@@H](OCc3ccccc3)CN2C(=O)[C@@H](CC(=O)OCc2ccccc2)NC(=O)[C@@H](Cc2c[nH]c3ccccc23)NC1=O` [cyclo[-D-Asp(OBzl)-Hyp(Bzl)-Asp(OBzl)-D-Leu-Leu-D-Trp-]] had a ring closure, yield of all isomers in series [1] (from CC(C)C[C@H](NC(=O)[C@@H](CC(C)C)NC(=O)[C@H](CC(=O)OCc1ccccc1)NC(=O)[C@@H]1C[C@@H](OCc2ccccc2)CN1C(=O)[C@@H](CC(=O)OCc1ccccc1)NC(=O)[C@@H](Cc1c[nH]c2ccccc12)NC(=O)OC(C)(C)C)C(=O)O, HONB/DCC (active ester), then TEA, DMF, 9.5 mM, 16.0 h, 3 steps) of 82.6%.
The compound `CC(C)C[C@@H]1NC(=O)C2(CCC2)NC(=O)[C@H](CC(=O)O)NC(=O)[C@H](Cc2c[nH]c3ccccc23)NC(=O)[C@@H](CC(=O)O)NC(=O)[C@@H](Cc2c[nH]c3ccccc23)NC1=O` [cyclo[-D-Asp-Trp-Asp-Acbu-Leu-D-Trp-]] gave a ring closure, yield of all isomers in series [1] (from CC(C)C[C@H](NC(=O)C1(NC(=O)OC(C)(C)C)CCC1)C(=O)N[C@H](Cc1c[nH]c2ccccc12)C(=O)N[C@H](CC(=O)OCc1ccccc1)C(=O)N[C@@H](Cc1c[nH]c2ccccc12)C(=O)N[C@@H](CC(=O)OCc1ccccc1)C(=O)O, HONB/DCC (active ester), TEA, DMF, 4.95 mM, 4 steps) of 10.4%.
As for `CC(C)C[C@@H]1NC(=O)[C@@H](CC(C)C)NC(=O)[C@H](CC(=O)O)NC(=O)[C@H](CCCNC(=O)Cc2ccccc2)NC(=O)[C@@H](CC(=O)O)NC(=O)[C@@H](Cc2c[nH]c3ccccc23)NC1=O` [cyclo[-D-Asp-Orn(COCH2 Ph)-Asp-D-Leu-Leu-D-Trp-]], in series [1] (from CC(C)C[C@H](NC(=O)[C@@H](CC(C)C)NC(=O)[C@H](CC(=O)OCc1ccccc1)NC(=O)[C@H](CCCNC(=O)Cc1ccccc1)NC(=O)OC(C)(C)C)C(=O)N[C@H](Cc1c[nH]c2ccccc12)C(=O)N[C@H](CC(=O)OCc1ccccc1)C(=O)O, HONB/DCC (active ester), TEA, DMF, 4.66 mM, 4 steps), the ring closure, yield of all isomers was determined as 2.9%.
In series [1] (from CC(C)C[C@H](NC(=O)[C@@H](CC(C)C)NC(=O)[C@H](CC(=O)OCc1ccccc1)NC(=O)[C@H](CCCNC(=O)CCc1ccccc1)NC(=O)OC(C)(C)C)C(=O)N[C@H](Cc1c[nH]c2ccccc12)C(=O)N[C@H](CC(=O)OCc1ccccc1)C(=O)O, HONB/DCC (active ester), TEA, DMF, 5.05 mM, 16.0 h, 4 steps), `CC(C)C[C@@H]1NC(=O)[C@@H](CC(C)C)NC(=O)[C@H](CC(=O)O)NC(=O)[C@H](CCCNC(=O)CCc2ccccc2)NC(=O)[C@@H](CC(=O)O)NC(=O)[C@@H](Cc2c[nH]c3ccccc23)NC1=O` [cyclo[-D-Asp-Orn(COCH2 CH2 Ph)-Asp-D-Leu-Leu-D-Trp-]] gave a ring closure, yield of all isomers of 40.9%.
As for `CC(C)C[C@@H]1NC(=O)[C@@H](CC(C)C)NC(=O)[C@H](CC(=O)O)NC(=O)[C@H](CCCNC(=O)c2ccccc2)NC(=O)[C@@H](CC(=O)O)NC(=O)[C@@H](Cc2c[nH]c3ccccc23)NC1=O` [cyclo[-D-Asp-Orn(COPh)-Asp-D-Leu-Leu-D-Trp-]], the ring closure, yield of all isomers in series [1] (from CC(C)C[C@H](NC(=O)[C@@H](CC(C)C)NC(=O)[C@H](CC(=O)OCc1ccccc1)NC(=O)[C@H](CCCNC(=O)c1ccccc1)NC(=O)OC(C)(C)C)C(=O)N[C@H](Cc1c[nH]c2ccccc12)C(=O)N[C@H](CC(=O)OCc1ccccc1)C(=O)O, HONB/DCC (active ester), TEA, DMF, 5.03 mM, 4 steps) is 48.1%.
The compound `CC(C)C[C@@H]1NC(=O)[C@@H](c2cccs2)NC(=O)[C@H](CC(=O)O)NC(=O)[C@H](CC(=O)NCCc2c[nH]c3ccccc23)NC(=O)[C@@H](CC(=O)O)NC(=O)[C@@H](Cc2c[nH]c3ccccc23)NC1=O` [cyclo[-D-Asp-Asn(CH2 CH2 -Ind)-Asp-D-Thg(2)-Leu-D-Trp-]] came in with a ring closure, yield of all isomers in series [1] (from CC(C)C[C@H](NC(=O)[C@H](NC(=O)OC(C)(C)C)c1cccs1)C(=O)N[C@H](Cc1c[nH]c2ccccc12)C(=O)N[C@H](CC(=O)OCc1ccccc1)C(=O)N[C@@H](CC(=O)NCCc1c[nH]c2ccccc12)C(=O)N[C@@H](CC(=O)OCc1ccccc1)C(=O)O, 4 steps) of 9.5%.
In the case of `CC(C)C[C@@H]1NC(=O)[C@@H](CC(C)C)NC(=O)[C@H](CC(=O)O)NC(=O)[C@H](CCCNC(=O)Cc2c[nH]c3ccccc23)NC(=O)[C@@H](CC(=O)O)NC(=O)[C@@H](Cc2c[nH]c3ccccc23)NC1=O` [cyclo[-D-Asp-Orn(COCH2 -Ind)-Asp-D-Leu-Leu-D-Trp-]], the ring closure, yield of all isomers in series [1] (from CC(C)C[C@H](NC(=O)[C@@H](CC(C)C)NC(=O)[C@H](CC(=O)OCc1ccccc1)NC(=O)[C@H](CCCNC(=O)Cc1c[nH]c2ccccc12)NC(=O)OC(C)(C)C)C(=O)N[C@H](Cc1c[nH]c2ccccc12)C(=O)N[C@H](CC(=O)OCc1ccccc1)C(=O)O, 4 steps) is 12.5%.
Compound `CC(C)C[C@@H]1NC(=O)[C@@H](CC(C)C)NC(=O)[C@H](CCC(=O)O)NC(=O)[C@H](C)NC(=O)[C@@H](CC(=O)O)NC(=O)[C@@H](Cc2c[nH]c3ccccc23)NC1=O` [cyclo[-D-Asp-Ala-Glu-D-Leu-Leu-D-Trp-]] returned a ring closure, yield of all isomers in series [1] (from CC(C)C[C@H](NC(=O)[C@@H](CC(C)C)NC(=O)[C@H](CCC(=O)OCc1ccccc1)NC(=O)[C@H](C)NC(=O)[C@@H](CC(=O)OCc1ccccc1)NC(=O)[C@@H](Cc1c[nH]c2ccccc12)NC(=O)OC(C)(C)C)C(=O)O, HONB/DCC (active ester), TEA, DMF, 4.97 mM, 16.0 h, 4 steps) of 24.1%.
As to `CC(C)C[C@@H]1NC(=O)[C@H](CC(=O)O)NC(=O)[C@@H](CC(=O)O)NC(=O)[C@@H](Cc2c[nH]c3ccccc23)NC(=O)[C@H](CC(C)C)NC(=O)[C@@H](CC(C)C)NC1=O` [Example 32, Cyclo[--D--Asp--Asp--Leu--D--Leu--Leu--D--Trp--]] (cyclo(DL[dL]L[dW][dD])), the “Binding Activity on ET Receptor (R. act.) ETA” value in series [2] amounted to 4.0. In addition, the “Binding Activity on ET Receptor (R. act.) ET8 *2” value in series [3] is listed as 7.7.
On the same counts, the results for `CC(C)C[C@@H]1NC(=O)[C@@H](CC(C)C)NC(=O)[C@H]2CCCN2C(=O)[C@H](CC(=O)O)NC(=O)[C@@H](CC(=O)O)NC(=O)[C@@H](Cc2c[nH]c3ccccc23)NC1=O` [Example 31, Cyclo[--D--Asp--Asp--D--Pro--D--Leu--Leu--D--Trp--]] (cyclo(D[dP][dL]L[dW][dD])) are 2.6 and 1.0.
